{"source": "ChEMBL document CHEMBL5653631", "about": "“A Potent and Selective ULK1 Inhibitor Suppresses Autophagy and Sensitizes Cancer Cells to Nutrient Stress” (iScience, 2018)", "key": {"[1]": {"target": "T1, Mitogen-activated protein kinase 13 (Homo sapiens) (UniProt O15264)", "T1 sequence (whole entry)": "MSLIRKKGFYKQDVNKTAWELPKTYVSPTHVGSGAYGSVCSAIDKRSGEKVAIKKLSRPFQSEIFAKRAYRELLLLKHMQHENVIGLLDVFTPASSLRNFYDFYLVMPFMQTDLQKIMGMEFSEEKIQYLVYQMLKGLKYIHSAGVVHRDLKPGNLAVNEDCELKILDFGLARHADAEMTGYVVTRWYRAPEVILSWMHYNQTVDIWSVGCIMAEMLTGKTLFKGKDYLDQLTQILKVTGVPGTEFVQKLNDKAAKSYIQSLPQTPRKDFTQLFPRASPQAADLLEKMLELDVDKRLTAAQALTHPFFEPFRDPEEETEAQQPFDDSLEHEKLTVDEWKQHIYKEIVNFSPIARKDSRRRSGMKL", "experiment": "Inhibition of human recombinant p38delta at 40 nM in presence of ATP by radiometric assay relative to control"}, "[2]": {"target": "T2, Ephrin type-A receptor 1 (Homo sapiens) (UniProt P21709)", "T2 sequence (whole entry)": "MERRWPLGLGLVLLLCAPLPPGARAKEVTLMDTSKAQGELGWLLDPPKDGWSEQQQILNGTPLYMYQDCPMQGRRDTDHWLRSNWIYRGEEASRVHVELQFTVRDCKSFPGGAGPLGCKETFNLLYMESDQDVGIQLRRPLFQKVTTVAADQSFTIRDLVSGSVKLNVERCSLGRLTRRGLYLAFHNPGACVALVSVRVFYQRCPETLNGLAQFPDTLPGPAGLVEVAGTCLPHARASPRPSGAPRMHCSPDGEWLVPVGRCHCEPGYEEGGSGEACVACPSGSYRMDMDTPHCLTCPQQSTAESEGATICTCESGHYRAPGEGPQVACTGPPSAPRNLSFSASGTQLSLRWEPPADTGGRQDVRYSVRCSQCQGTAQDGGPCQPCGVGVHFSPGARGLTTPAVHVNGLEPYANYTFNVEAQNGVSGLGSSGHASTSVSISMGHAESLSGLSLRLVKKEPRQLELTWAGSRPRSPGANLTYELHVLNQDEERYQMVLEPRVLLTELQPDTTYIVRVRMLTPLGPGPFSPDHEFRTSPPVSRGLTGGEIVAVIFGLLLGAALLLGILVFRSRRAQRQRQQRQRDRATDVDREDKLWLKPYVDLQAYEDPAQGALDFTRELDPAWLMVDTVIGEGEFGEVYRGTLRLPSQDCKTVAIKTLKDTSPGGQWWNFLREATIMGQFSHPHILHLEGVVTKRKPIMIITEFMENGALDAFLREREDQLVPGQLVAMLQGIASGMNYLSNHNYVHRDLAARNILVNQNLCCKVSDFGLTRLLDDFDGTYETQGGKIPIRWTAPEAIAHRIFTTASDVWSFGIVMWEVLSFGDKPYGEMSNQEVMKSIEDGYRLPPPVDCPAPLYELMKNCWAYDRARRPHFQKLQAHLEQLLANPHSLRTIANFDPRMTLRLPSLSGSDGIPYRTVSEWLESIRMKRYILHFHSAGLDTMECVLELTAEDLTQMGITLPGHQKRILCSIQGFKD", "experiment": "Inhibition of human recombinant EphA1 at 40 nM related to control ULK1"}, "[3]": {"target": "T3, Dual specificity protein kinase TTK (Homo sapiens) (UniProt P33981)", "T3 sequence (whole entry)": "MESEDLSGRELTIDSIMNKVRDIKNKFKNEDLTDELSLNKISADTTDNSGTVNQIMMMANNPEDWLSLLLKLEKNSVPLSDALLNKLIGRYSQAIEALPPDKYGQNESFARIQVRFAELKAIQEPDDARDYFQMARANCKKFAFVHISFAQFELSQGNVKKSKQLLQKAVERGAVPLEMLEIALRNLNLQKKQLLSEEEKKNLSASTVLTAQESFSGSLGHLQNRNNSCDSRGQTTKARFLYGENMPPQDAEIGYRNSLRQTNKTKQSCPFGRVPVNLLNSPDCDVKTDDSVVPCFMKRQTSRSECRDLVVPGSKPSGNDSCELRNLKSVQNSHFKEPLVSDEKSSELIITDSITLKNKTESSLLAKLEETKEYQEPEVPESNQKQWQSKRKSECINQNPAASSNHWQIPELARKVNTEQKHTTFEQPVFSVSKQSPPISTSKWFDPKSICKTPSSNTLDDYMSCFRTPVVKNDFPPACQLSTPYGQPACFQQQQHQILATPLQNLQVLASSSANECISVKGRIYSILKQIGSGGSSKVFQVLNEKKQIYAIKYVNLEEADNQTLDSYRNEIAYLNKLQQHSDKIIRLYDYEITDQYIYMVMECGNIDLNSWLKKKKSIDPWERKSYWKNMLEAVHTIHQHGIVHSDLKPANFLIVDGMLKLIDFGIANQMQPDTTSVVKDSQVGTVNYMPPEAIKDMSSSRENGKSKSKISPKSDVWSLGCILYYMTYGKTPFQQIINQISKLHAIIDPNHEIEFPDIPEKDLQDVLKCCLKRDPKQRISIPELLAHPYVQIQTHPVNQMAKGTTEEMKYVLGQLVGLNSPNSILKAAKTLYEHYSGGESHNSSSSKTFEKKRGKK", "experiment": "Inhibition of human recombinant TTK at 40 nM related to control ULK1"}, "[4]": {"target": "Ribosomal protein S6 kinase alpha-5 (Homo sapiens) (UniProt O75582)", "sequence (O75582 whole entry, looked up)": "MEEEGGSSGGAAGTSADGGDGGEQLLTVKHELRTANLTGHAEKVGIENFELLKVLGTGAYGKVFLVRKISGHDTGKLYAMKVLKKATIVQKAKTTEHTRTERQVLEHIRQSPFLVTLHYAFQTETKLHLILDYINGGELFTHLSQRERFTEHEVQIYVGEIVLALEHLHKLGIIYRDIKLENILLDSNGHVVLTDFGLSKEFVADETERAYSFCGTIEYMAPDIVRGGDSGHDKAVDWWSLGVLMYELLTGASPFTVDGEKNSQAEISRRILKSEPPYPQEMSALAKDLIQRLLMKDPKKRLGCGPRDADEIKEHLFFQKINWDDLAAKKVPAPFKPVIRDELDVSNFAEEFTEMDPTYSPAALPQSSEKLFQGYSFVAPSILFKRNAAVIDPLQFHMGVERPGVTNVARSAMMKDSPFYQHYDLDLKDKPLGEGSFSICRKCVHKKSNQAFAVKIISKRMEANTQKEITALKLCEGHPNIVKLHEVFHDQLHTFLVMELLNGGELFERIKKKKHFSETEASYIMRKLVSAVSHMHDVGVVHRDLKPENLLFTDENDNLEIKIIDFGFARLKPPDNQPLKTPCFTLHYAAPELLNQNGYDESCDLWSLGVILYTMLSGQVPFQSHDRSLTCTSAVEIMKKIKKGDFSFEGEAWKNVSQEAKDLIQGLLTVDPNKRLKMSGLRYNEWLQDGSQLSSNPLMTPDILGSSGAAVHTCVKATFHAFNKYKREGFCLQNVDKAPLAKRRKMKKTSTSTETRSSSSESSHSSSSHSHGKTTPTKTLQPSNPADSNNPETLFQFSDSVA", "experiment": "Inhibition of human recombinant MSK1 at 15 nM related to control ULK1"}, "[5]": {"target": "Macrophage-stimulating protein receptor (Homo sapiens) (UniProt Q04912)", "sequence (Q04912 25-304 limits assumed)": "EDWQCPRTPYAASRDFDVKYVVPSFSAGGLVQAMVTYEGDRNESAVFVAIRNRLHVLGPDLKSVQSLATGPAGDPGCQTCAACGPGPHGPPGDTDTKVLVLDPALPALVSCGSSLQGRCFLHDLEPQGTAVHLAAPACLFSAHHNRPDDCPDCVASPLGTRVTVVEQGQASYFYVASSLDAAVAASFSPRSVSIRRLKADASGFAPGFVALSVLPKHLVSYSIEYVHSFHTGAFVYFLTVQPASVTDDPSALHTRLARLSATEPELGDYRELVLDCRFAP", "sequence (Q04912 310-1400 limits assumed)": "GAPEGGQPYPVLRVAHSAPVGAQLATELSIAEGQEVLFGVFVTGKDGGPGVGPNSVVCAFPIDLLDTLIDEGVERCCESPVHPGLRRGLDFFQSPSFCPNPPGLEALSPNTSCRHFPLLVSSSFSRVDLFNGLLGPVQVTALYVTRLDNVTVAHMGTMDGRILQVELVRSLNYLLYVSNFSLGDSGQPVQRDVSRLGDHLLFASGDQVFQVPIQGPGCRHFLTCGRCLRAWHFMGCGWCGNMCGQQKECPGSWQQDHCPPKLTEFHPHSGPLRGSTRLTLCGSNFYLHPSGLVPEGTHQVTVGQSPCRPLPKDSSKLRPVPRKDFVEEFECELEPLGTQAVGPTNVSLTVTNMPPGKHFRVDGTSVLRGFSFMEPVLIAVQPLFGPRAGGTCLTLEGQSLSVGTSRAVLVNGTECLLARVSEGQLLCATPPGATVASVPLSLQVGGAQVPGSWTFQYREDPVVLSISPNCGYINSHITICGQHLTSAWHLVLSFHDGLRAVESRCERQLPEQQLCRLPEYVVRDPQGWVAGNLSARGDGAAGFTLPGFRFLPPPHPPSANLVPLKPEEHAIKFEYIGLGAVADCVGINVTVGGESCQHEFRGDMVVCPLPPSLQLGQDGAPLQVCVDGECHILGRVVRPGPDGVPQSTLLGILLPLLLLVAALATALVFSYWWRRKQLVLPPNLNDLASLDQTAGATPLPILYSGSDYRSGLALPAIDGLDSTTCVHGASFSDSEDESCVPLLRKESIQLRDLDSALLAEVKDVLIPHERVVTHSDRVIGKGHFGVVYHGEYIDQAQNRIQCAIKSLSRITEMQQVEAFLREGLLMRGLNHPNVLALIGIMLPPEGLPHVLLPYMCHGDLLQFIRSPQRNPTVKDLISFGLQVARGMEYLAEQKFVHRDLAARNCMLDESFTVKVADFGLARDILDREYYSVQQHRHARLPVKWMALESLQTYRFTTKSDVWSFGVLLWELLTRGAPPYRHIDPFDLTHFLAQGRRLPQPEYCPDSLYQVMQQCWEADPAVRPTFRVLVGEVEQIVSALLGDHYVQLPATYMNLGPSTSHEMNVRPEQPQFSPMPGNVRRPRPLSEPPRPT", "experiment": "Inhibition of human recombinant RON at 15 nM related to control ULK1"}, "[6]": {"target": "Death-associated protein kinase 3 (Homo sapiens) (UniProt O43293)", "sequence (O43293 whole entry, looked up)": "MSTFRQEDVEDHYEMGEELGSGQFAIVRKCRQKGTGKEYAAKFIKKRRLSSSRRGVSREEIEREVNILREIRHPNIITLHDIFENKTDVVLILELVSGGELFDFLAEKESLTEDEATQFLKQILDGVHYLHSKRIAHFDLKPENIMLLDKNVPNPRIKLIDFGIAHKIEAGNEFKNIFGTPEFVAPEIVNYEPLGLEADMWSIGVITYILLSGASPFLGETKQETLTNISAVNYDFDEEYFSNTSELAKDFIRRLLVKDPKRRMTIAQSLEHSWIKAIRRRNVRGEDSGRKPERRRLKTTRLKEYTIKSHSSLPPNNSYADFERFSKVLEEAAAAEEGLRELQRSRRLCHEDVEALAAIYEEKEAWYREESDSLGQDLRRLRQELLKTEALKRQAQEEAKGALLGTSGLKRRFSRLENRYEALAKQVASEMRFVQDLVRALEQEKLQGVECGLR", "experiment": "Inhibition of human recombinant DAPK3 at 500 nM in presence of ATP by radiometric assay relative to control"}}}
{"compound": "O=C(N[C@@H](C1CC1)C(F)(F)F)c1cc(-c2cnn3cc(-c4ccc(F)cc4)cnc23)cs1", "values": [{"measurement": "inhibition", "setting": "[1]", "result": 12, "unit": "%"}, {"measurement": "fold change (FC)", "setting": "[2]", "result": 0}, {"measurement": "fold change (FC)", "setting": "[3]", "result": 0.45}]}
{"compound": "CC(C)[C@H](NC(=O)c1cc(-c2cnn3cc(-c4ccc(OCCN5CCCCC5)cc4)cnc23)cs1)C(F)(F)F", "values": [{"measurement": "fold change (FC)", "setting": "[4]", "result": 0.02}, {"measurement": "fold change (FC)", "setting": "[5]", "result": 0.02}]}
{"compound": "CNC(=O)c1ccccc1Oc1nc(Nc2cc(OC)c(OC)c(OC)c2)ncc1Br", "values": [{"measurement": "inhibition", "setting": "[6]", "result": 10, "unit": "%"}]}
